Test [1] has as its system Aspergillus brasiliensis ATCC 16404. The test can be described thus: Synergy test, high resolution MIC microtiter plate assay, Potato Dextrose Broth. It is filed as cell-based. The settings on record: A. brasiliensis ATCC 16404, PDB, contact time 7 days; for SI (Synergy Index, Qa/QA+Qb/QB): SI less than one = synergy; for MIC: Aspergillus brasiliensis, ATCC16404, 168 h, 25° C. From the text: (§1) One measure of synergism is the industrially accepted method described by Kull, F. C.; Eisman, P. C.; Sylwestrowicz, H. D. and Mayer, R. L., in Applied Microbiology 9:538-541 (1961), using the ratio determined by the formula:
(§2) Qa/QA+Qb/QB=Synergy Index (“SI”)
(§3) wherein: • QA=concentration of compound A (first component) in ppm, acting alone, which produced an end point (MIC of Compound A). • Qa=concentration of compound A in ppm, in the mixture, which produced an end point. • QB=concentration of compound B (second component) in ppm, acting alone, which produced an end point (MIC of Compound B). • Qb=concentration of compound B in ppm, in the mixture, which produced an end point.
(§4) When the sum of Qa/QA and Qb/QB is greater than one, antagonism is indicated. […] The lower the SI, the greater is the synergy shown by that particular mixture. The minimum inhibitory concentration (MIC) of a microbicide is the lowest concentration tested under a specific set of conditions that prevents the growth of the tested microorganisms.
(§5) Synergy tests were conducted using standard microtiter plate assays with media designed for optimal growth of the test microorganism. Potato Dextrose Broth (PDB medium) was used for testing yeast and mold. In this method, a wide range of combinations of microbicides and other personal care raw materials was tested by conducting high resolution MIC assays in the presence of lactic acid. High resolution MICs were determined by adding varying amounts of microbicide to one column of a microtitre plate and doing subsequent […] dilutions using an automated liquid handling system to obtain a series of closely spaced endpoints.
(§6) The synergy of the combinations of the present invention was determined against a yeast, Candida albicans (C. albicans—ATCC 10231) and a mold, Aspergillus brasiliensis (A. brasiliensis—ATCC 16404). The yeast and mold were used at concentrations of 5×10^5 cells per mL. These microorganisms are representative of natural contaminants in many consumer and industrial applications.
(§7) In this test, First Component (A) was lactic acid and the Second Component (B) was caprylic acid.
(§8) First Component (A)=Lactic acid (LA) Second Component (B)=Caprylic acid (CA) • Table 1: Aspergillus brasiliensis • ATCC 16404 • Potato Dextrose Broth • Contact Time=7 days • Table 2: Candida albicans • ATCC 10231 • Potato Dextrose Broth • Contact Time=48 hours

The subject of test [2] is Candida albicans ATCC 10231. Described as above. The settings on record: C. albicans ATCC 10231, PDB, contact time 48 hours. In kind it is cell-based.
Excerpt: as §1, §2, §3, §4, §5, §6, §7, §8

Where two headings read alike, the source gives them in different places.

Turning to `CCCCCCCC(=O)O` [Caprylic Acid, octanoic acid], the “SI (Synergy Index, Qa/QA+Qb/QB)” value in test [1] and in test [2] (SI less than one = synergy) was 1.00 throughout. The MIC (in general, the lowest concentration that inhibits growth of the organism) in test [1] (caprylic acid alone, read-out: Caprylic Acid, ppm: MIC for caprylic acid alone (QB)) was 10000 µg/mL; in test [2] (Candida albicans, ATCC10231, caprylic acid alone, 25° C., read-out: Caprylic Acid, ppm: MIC for caprylic acid alone (QB)), 60 µg/mL.
On to `CC(O)C(=O)O` (stereo not drawn) [Lactic Acid, 2-hydroxypropanoic acid], for which, in test [1], the “SI (Synergy Index, Qa/QA+Qb/QB)” value came to 1.00. Further, the MIC in test [1] (lactic acid alone, read-out: Lactic Acid, ppm: MIC for lactic acid alone (QA)) came to 30000 µg/mL.
